In the supplement of paper PMC10307832:

Tests used:
Assay in all cases: relative viability (nuclei count vs DMSO), 5 days (fraction); higher = more cells survive
SK-MES-1 = test system: SK-MES-1
Summary of the method: (§1)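 Lung cancer cell lines were seeded in 1536-well plates and dosed by pin tool the next day, with either a single drug or a fixed anchor-drug dose combined with five library-drug doses (not always all listed) spaced in √10 steps. Five days later, one step fixed the cells and stained their nuclei (final 0.05% Triton X-100, 1% formaldehyde, 1 ug/ml Hoechst), and nuclei were counted on 4× images. Relative viability is the nuclei count in treated wells divided by the count in vehicle wells, and each value is the median of duplicate plates.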

SK-LU-1 = test system: SK-LU-1
Summary of the method: as §1

HCC-366 = test system: HCC-366
Summary of the method: as §1

NCI-H2228 = test system: NCI-H2228
Summary of the method: as §1

NCI-H2347 = test system: NCI-H2347
Summary of the method: as §1

NCI-H2170 = test system: NCI-H2170
Summary of the method: as §1

NCI-H650 = test system: NCI-H650
Summary of the method: as §1

RERF-LC-KJ = test system: RERF-LC-KJ
Summary of the method: as §1

NCI-H1915 = test system: NCI-H1915
Summary of the method: as §1

LC-2-ad = test system: LC-2-ad
Summary of the method: as §1

NCI-H1975 = test system: NCI-H1975
Summary of the method: as §1

A-427 = test system: A-427
Summary of the method: as §1

NCI-H23 = test system: NCI-H23
Summary of the method: as §1

NCI-H1355 = test system: NCI-H1355
Summary of the method: as §1

SW 1573 = test system: SW 1573
Summary of the method: as §1

NCI-H1755 = test system: NCI-H1755
Summary of the method: as §1

UMC-11 = test system: UMC-11
Summary of the method: as §1

HCC-827 = test system: HCC-827
Summary of the method: as §1

NCI-H1734 = test system: NCI-H1734
Summary of the method: as §1

NCI-H1993 = test system: NCI-H1993
Summary of the method: as §1

NCI-H1792 = test system: NCI-H1792
Summary of the method: as §1

CN1CCN(CCOc2cc(OC3CCOCC3)c3c(Nc4c(Cl)ccc5c4OCO5)ncnc3c2)CC1 [Saracatinib] + CS(=O)(=O)CCNCc1ccc(-c2ccc3ncnc(Nc4ccc(OCc5cccc(F)c5)c(Cl)c4)c3c2)o1 [Lapatinib] (partner 2 µM)
relative viability (SK-MES-1; first compound 0.02 µM): 0.442
relative viability (SK-MES-1; first compound 0.2 µM): 0.425
relative viability (SK-MES-1; first compound 0.6325 µM): 0.47
relative viability (SK-MES-1; first compound 2 µM): 0.41
relative viability (SK-LU-1; first compound 0.02 µM): 0.818
relative viability (SK-LU-1; first compound 0.2 µM): 0.572
relative viability (SK-LU-1; first compound 0.6325 µM): 0.45
relative viability (SK-LU-1; first compound 2 µM): 0.406
relative viability (HCC-366; first compound 0.02 µM): 1.02
relative viability (HCC-366; first compound 0.6325 µM): 1.04
relative viability (HCC-366; first compound 2 µM): 0.707
relative viability (NCI-H2228; first compound 0.02 µM): 1.35
relative viability (NCI-H2228; first compound 0.2 µM): 0.995
relative viability (NCI-H2228; first compound 0.6325 µM): 1.07
relative viability (NCI-H2228; first compound 2 µM): 0.674
relative viability (NCI-H2347; first compound 0.02 µM): 0.988
relative viability (NCI-H2347; first compound 0.2 µM): 0.817
relative viability (NCI-H2347; first compound 0.6325 µM): 1.12
relative viability (NCI-H2347; first compound 2 µM): 0.903
relative viability (NCI-H2170; first compound 0.02 µM): 0.28
relative viability (NCI-H2170; first compound 0.2 µM): 0.246
relative viability (NCI-H2170; first compound 0.6325 µM): 0.293
relative viability (NCI-H2170; first compound 2 µM): 0.231
relative viability (NCI-H650; first compound 0.02 µM): 1
relative viability (NCI-H650; first compound 0.2 µM): 0.85
relative viability (NCI-H650; first compound 0.6325 µM): 0.928
relative viability (NCI-H650; first compound 2 µM): 1.17
relative viability (RERF-LC-KJ; first compound 0.02 µM): 0.893
relative viability (RERF-LC-KJ; first compound 0.2 µM): 0.82
relative viability (RERF-LC-KJ; first compound 0.6325 µM): 0.881
relative viability (RERF-LC-KJ; first compound 2 µM): 1.02
relative viability (NCI-H1915; first compound 0.02 µM): 0.987
relative viability (NCI-H1915; first compound 0.2 µM): 0.917
relative viability (NCI-H1915; first compound 0.6325 µM): 0.955
relative viability (NCI-H1915; first compound 2 µM): 0.819
relative viability (LC-2-ad; first compound 0.02 µM): 1.06
relative viability (LC-2-ad; first compound 0.6325 µM): 0.998
relative viability (LC-2-ad; first compound 2 µM): 0.761
relative viability (NCI-H1975; first compound 0.02 µM): 1.03
relative viability (NCI-H1975; first compound 0.6325 µM): 0.819
relative viability (NCI-H1975; first compound 2 µM): 0.687
relative viability (A-427; first compound 0.02 µM): 0.921
relative viability (A-427; first compound 0.2 µM): 0.877
relative viability (A-427; first compound 0.6325 µM): 1.07
relative viability (A-427; first compound 2 µM): 1.04
relative viability (NCI-H23; first compound 0.02 µM): 1.13
relative viability (NCI-H23; first compound 0.6325 µM): 1.28
relative viability (NCI-H23; first compound 2 µM): 0.895
relative viability (NCI-H1355; first compound 0.02 µM): 1.05
relative viability (NCI-H1355; first compound 0.2 µM): 0.956
relative viability (NCI-H1355; first compound 0.6325 µM): 1.18
relative viability (NCI-H1355; first compound 2 µM): 0.894
relative viability (SW 1573; first compound 0.02 µM): 1.27
relative viability (SW 1573; first compound 0.2 µM): 1.1
relative viability (SW 1573; first compound 0.6325 µM): 1.16
relative viability (SW 1573; first compound 2 µM): 1.14
relative viability (NCI-H1755; first compound 0.02 µM): 1.01
relative viability (NCI-H1755; first compound 0.2 µM): 0.816
relative viability (NCI-H1755; first compound 0.6325 µM): 1.1
relative viability (NCI-H1755; first compound 2 µM): 0.965
relative viability (UMC-11; first compound 0.02 µM): 0.931
relative viability (UMC-11; first compound 0.2 µM): 0.763
relative viability (UMC-11; first compound 0.6325 µM): 0.896
relative viability (UMC-11; first compound 2 µM): 0.78
relative viability (HCC-827; first compound 0.02 µM): 0.174
relative viability (HCC-827; first compound 0.2 µM): 0.202
relative viability (HCC-827; first compound 0.6325 µM): 0.199
relative viability (HCC-827; first compound 2 µM): 0.163
relative viability (NCI-H1734; first compound 0.02 µM): 1.11
relative viability (NCI-H1734; first compound 0.6325 µM): 0.999
relative viability (NCI-H1734; first compound 2 µM): 0.777
relative viability (NCI-H1993; first compound 0.02 µM): 0.864
relative viability (NCI-H1993; first compound 0.2 µM): 0.737
relative viability (NCI-H1993; first compound 2 µM): 0.691
relative viability (NCI-H1792; first compound 0.02 µM): 0.968
relative viability (NCI-H1792; first compound 0.2 µM): 0.778
relative viability (NCI-H1792; first compound 0.6325 µM): 1.05
relative viability (NCI-H1792; first compound 2 µM): 0.849
